Patent publication US20220304997A1, “REBAMIPIDE FOR USE IN PROPHYLAXIS AND TREATMENT OF CANCER” (SQUARE POWER LTD., priority 2019, published 2022)

Test system: Male CD-1 mice
Test: DSS model combined with PhIP treatment (increased intestinal permeability, colitis and colon tumors)
Assay type: in vivo
From the text: To study the effect of rebamipide on increased intestinal permeability, colonic inflammation and cancer development, a DSS model combined with PhIP treatment was employed. Male CD-1 mice, divided into three groups, designated A to C, were used in the study. […] Subsequently, all animals were given inflammatory insult using 2% dextran sodium sulfate (DSS) in drinking water for 7 days, followed by 2-4 weeks of recovery period, during which mice were given untreated water. This cycle was repeated up to four times to induce increased intestinal permeability leading to severe colitis with loss of body weight and bloody diarrhea. Subsequently, majority of animals developed multiple colon tumors. Treatment with DSS (dextran sulfate sodium) induces increased intestinal permeability in mice by binding to medium-chain-length fatty acids present in the colon leading to development of inflammation and colitis. Besides that, the DSS administration leads to a long-term development of dysplasia and even colon cancer in some of the mice treated. PhIP treatment accelerates this process and further increases the incidence of colonic tumors. Another advantage of including PhIP in the protocol is that it allows reduction of the DSS dose in mice, and decreases the mortality from DSS-associated acute colitis. The carcinogenic process of the DSS/PhIP system has a pathological progression from normal intestinal crypts to the formation of foci harboring aberrant crypts with crypt fission and finally to the emergence of microadenomas. These steps recapitulate the sequence of colorectal cancer formation in humans from increased intestinal permeability and inflammation through dysplasia to carcinoma. Rebamipide treatment started four weeks prior to carcinogen administration and continued throughout the study. Groups A and B received rebamipide 50 mg/kg/day and 350 mg/kg/day, respectively. Rebamipide was applied within the standard daily feed or by gavage if needed. The treatment lasted for 20 weeks. […] [table] The observed parameters were as follows: • Number and size of tumors • Histological evaluation of the tumors • Weight loss • Colitis severity assessment • Gut permeability • Cytokines and related markers (IL-6, IL-10, IL-1b, TNFα, iNOS, IL-23p19, MCP 1, MIP 2, CXCL1) • Cell-cell adhesion proteins (Claudin 1, β catenin) • Expression of target genes

[1] = PhIP/DSS-treated mice, in comparison to untreated animals
[2] = groups A and B, rebamipide 50 mg/kg/day and 350 mg/kg/day, 20 weeks, vs untreated control group C, preliminary results

Compound: O=C(NC(Cc1cc(=O)[nH]c2ccccc12)C(=O)O)c1ccc(Cl)cc1 (stereo not drawn) [rebamipide, 2-[(4-chlorobenzoyl)amino]-3-(2-oxo-1H-quinolin-4-yl)propanoic acid]
- intestinal inflammation [1]: suppresses intestinal inflammation
- onset of the symptoms and markers corresponding to colon cancer [1]: preventing or at least delaying the onset
- permeability of the gastrointestinal mucosa [1]: decrease in permeability
- recovery from the DSS treatment (groups A and B, rebamipide 50 mg/kg/day and 350 mg/kg/day in feed or by gavage, 20 weeks, vs untreated control group C, preliminary results): recovered faster
- incidence of tumors at the end of the study [2]: lower incidence
- size of tumors at the end of the study [2]: lower incidence and size of tumors
